Reference: publication PMC9558053, “Development of a novel high-throughput screen for the identification of new inhibitors of protein S-acylation” (The Journal of Biological Chemistry, 2022)

Tested on: endogenous SNAP23 S-acylation in HEK293T cells
Assay: mPEG-click S-acylation of endogenous SNAP23 in HEK293T cells
Type: cell-based, human
Settings: 25 and 50 μM, 4 h pretreatment + 4 h labeling
Description: Finally, we tested whether TTZ-1 and TTZ-2 were able to block the S-acylation of endogenous proteins in the absence of zDHHC enzyme overexpression. In order to detect the S-acylation of endogenous proteins, we used mPEG-click, a technique that we developed recently ([49]) that is better suited for the click chemistry–based analysis of S-acylation of endogenously expressed proteins. In this assay, cells are labeled with either palmitate (C16:0), or C16:0-azide, lysed, and then subjected to click chemistry with alkyne-mPEG 5K. The addition of mPEG 5K moieties to S-acylated proteins increases their apparent molecular weight, which can be detected directly by immunoblotting. HEK293T cells were pretreated for 4 h with either TTZ-1 or TTZ-2 at 25 and 50 μM and then labeled with fatty acids for another 4 h in the presence of the compounds. We first assessed the S-acylation of endogenous SNAP23 as it is a close relative of SNAP25 (SNAP25 is not expressed in the non-neuronal HEK293T cell line) ([50], [51]). […]
Figure 10 Activity of TTZ-1 and TTZ-2 against the S-acylation of endogenous proteins in mammalian cells. […] The data were quantified, and the graphs below each set of membranes show mean ± SEM of normalized S-acylation of either endogenous SNAP23 (A) or endogenous calnexin (B). […]

Compound: CCCCCCCOc1ccc(C(=O)Nc2cccc3c2OC(c2nnn[nH]2)CN3)cc1 (centres unmarked) [TTZ-1, N-(2-(1H-Tetrazol-5-yl)-3,4-dihydro-2H-benzo[b][1,4]oxazin-8-yl)-4-(heptyloxy)benzamide]
- S-acylation of endogenous SNAP23: significant reduction

Compound: O=C(Nc1cccc2c1OC(c1nnn[nH]1)CN2)c1ccc(OCCCCc2ccccc2)cc1 (centres unmarked) [TTZ-2, N-(2-(1H-Tetrazol-5-yl)-3,4-dihydro-2H-benzo[b][1,4]oxazin-8-yl)-4-(4-phenylbutoxy)benzamide]
- S-acylation of endogenous SNAP23: significant reduction
